Read-outs that look alike come from different tables or passages of the source.
Legend:
[1] = system: NCI/ADR-RES; assay: cells; type: cell-based, human
Procedure, shortened: (§1)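 Calcein fluorescence (485/535 nm) reports intracellular esterase activity of surviving cells after 72 h compound treatment. Each IC50 derives from at least six dose-response runs over a five-point two-fold dilution series.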

[2] = system: SF-268; assay: cells; type: cell-based, human
Procedure, shortened: as §1

[3] = system: SK-OV-3; assay: cells; type: cell-based, human
Procedure, shortened: as §1

[4] = system: MCF7; assay: High-throughput calcein AM cytotoxicity assay, MCF7; type: cell-based, human; conditions: MCF7 cells; read-out: IC50, MCF7
Description: (§2) Standard errors are depicted with error bars.

[5] = system: NCI-H460; assay: High-throughput calcein AM cytotoxicity assay, NCI-H460; type: cell-based, human; conditions: NCI-H460 cells; read-out: IC50, NCI-H460
Description: as §2

[6] = system: nine human cancer cell lines and a mouse mammary normal epithelial control line; assay: High-throughput calcein AM cytotoxicity assay, whole cell line panel; conditions: for cytotoxicity (in words): cell line panel, 72 h, calcein AM
Description: In the assay, live cells were distinguished by the presence of a ubiquitous intracellular enzymatic activity which converts the non-fluorescent cell-permeable molecule calcein AM to the intensely fluorescent molecule calcein, which is retained within live cells. The IC50 value for each library member represents at least six replicates of dose-response experiments conducted over five concentrations using two-fold dilutions. […] Standard errors are depicted with error bars. Numerical values and corresponding error values can be found in Table 4. Du145: […]; MCF7: human breast carcinoma; HCT-116: human colon carcinoma, Hep3B: human liver carcinoma; SF-268: human CNS glioblastoma; SK-OV-3: human ovary adenocarcinoma; NCI-H460: human lung carcinoma; A549: human lung adenocarcinoma; NCI/ADR-RES: human breast carcinoma; NmuMG: mouse mammary normal epithelial.
Cell Culture: All cell lines except NmuMG were maintained in RPMI 1640 medium from InVitrogen (Cat No. 11875-085) supplemented with 10% w/v fetal bovine serum (FBS) from ICN (Cat No. 2916154) and penicillin-streptomycin (PS) (100 U/mL and 100 μg/mL) from InVitrogen (Cat No. 15140-122). NmuMG cells were maintained in DMEM medium from InVitrogen (Cat No. 11965-084) supplemented with 10% w/v fetal bovine serum (FBS) from ICN (Cat No. 2916154), 10 μg/ml insulin (InVitrogen Cat No 12585-014), and penicillin-streptomycin (PS) (100 U/mL and 100 μg/mL) from InVitrogen (Cat No. 15140-122). Cells were harvested by trypsinization using 0.25% w/v trypsin and 0.1% w/v EDTA from InVitrogen (Cat No. 15-050-057) and then counted in a hemocytometer in duplicate with better than 10% agreement in field counts. Cells were plated at a cell density of 10,000-15,000 cells/well of each Corning Costar 96-well black tissue culture treated microtiter plate (Fisher Cat No. 07-200-627). Cells were grown for 1 h at 37° C., with 5% CO2 in a humidified incubator to allow cell attachment to occur before compound addition.
Library Member Handling and Preparation for Cytotoxicity Assays: Library members were stored at −20° C. under dessicating conditions before the assay. Library member stocks (100×) were prepared in Corning Costar polypropylene 96-well V-bottom polypropylene microtiter plates (Fisher Cat No. 07-200-695). Five serial 1:2 dilutions were made with anhydrous DMSO at 100× the final concentration used in the assay.
Library Member Addition: The library member-containing plates were diluted 1:10 with complete cell culture media. The 10× stocks (10 μL) were added to the attached cells using a Biomek FX liquid handler (Beckman-Coulter). Library member stocks (10 μL) were added to 90 μL of cells in each plate to insure full mixing of stocks with culture media using a Beckman FX liquid handler with 96-well head.
Determination of Cytotoxicity: Cells were incubated with the library members for 72 h before fluorescence reading. Test plates were removed from the incubator and washed 1× in sterile PBS to remove serum containing calcium esterases. Calcein AM reagent (30 μL, […]) was added and the cells were incubated for 30 min at 37° C. Plates were read for emission using a fluorescein filter (excitation 485 nm, emission 535 nm).
IC50 Calculation: For each library member, at least six dose response experiments were conducted. […] To calculate IC50, percent inhibitions were plotted as a function of log [concentration] and then fit to a four-parameter logistic model that allowed for a variable Hill slope using XLfit 4.1.
Cytotoxicity Assays. All cell lines except NmuMG were maintained in RPMI 1640 medium supplemented with 10% w/v fetal bovine serum (FBS) and penicillin-streptomycin (PS) (100 U/mL and 100 μg/mL).

[7] = system: HCT-116; assay: High-throughput calcein AM cytotoxicity assay, HCT-116; type: cell-based, human; conditions: HCT-116 cells; read-out: IC50, HCT-116
Description: as §2

[8] = system: A549; assay: High-throughput calcein AM cytotoxicity assay, A549; type: cell-based, human; conditions: A549 cells; read-out: IC50, A549
Description: as §2

[9] = system: Du145; assay: High-throughput calcein AM cytotoxicity assay, Du145; type: cell-based, human; conditions: Du145 cells; read-out: IC50, Du145
Description: as §2

[10] = system: NmuMG; assay: cells; type: cell-based, mouse
Procedure, shortened: as §1

[11] = system: Hep3B; assay: High-throughput calcein AM cytotoxicity assay, Hep3B; type: cell-based, human; conditions: Hep 3B cells; read-out: IC50, Hep 3B
Description: as §2

[12] = read-out: IC50, NCI/ADR-RES; NCI/ADR-RES cells
[13] = read-out: IC50, SF-268; SF-268 cells
[14] = read-out: IC50, SK-OV-3; SK-OV-3 cells
[15] = NCI/ADR-RES cells; read-out: IC50, NCI/ADR-RES
[16] = SF-268 cells; read-out: IC50, SF-268
[17] = SK-OV-3 cells; read-out: IC50, SK-OV-3
[18] = NmuMG mouse mammary normal epithelial control line; read-out: IC50, NmuMG

Compound | IC50 [1, 12] | IC50 [2, 13] | IC50 [3, 14] | IC50 [4] | IC50 [5] | IC50 ([6]; Homo sapiens) | IC50 [7] | IC50 [8] | IC50 [9] | IC50 ([10]; read-out: IC50, NmuMG; NmuMG mouse mammary normal epithelial control line) | IC50 [1, 15] | IC50 [2, 16] | IC50 [3, 17] | cytotoxicity (in words) [6] | IC50 [11] | IC50 [10, 18] | IC50 ([6]; all cell lines) | IC50 ([6]; Homo sapiens, read-out: average IC50) | IC50 ([10]; Mus musculus, read-out: IC50, NmuMG)
CONC1CC[C@]2(C)C3CC[C@]4(C)[C@@H](C5=CC(=O)OC5)CC[C@]4(O)C3CC[C@@H]2C1 (stereo partly drawn) [3α, S—C(3) aglycon] | 5100 nM | 3500 nM | 3000 nM | 13000 nM | 2400 nM | > 25000 nM | 9000 nM | 8300 nM | 2900 nM | > 25000 nM |  |  |  |  |  |  |  |  | 
CON([C@H]1CC[C@@]2(C)[C@H](CC[C@@H]3[C@@H]2CC[C@]2(C)[C@@H](C4=CC(=O)OC4)CC[C@]32O)C1)[C@@H]1O[C@H](CO)[C@@H](O)[C@H](O)[C@H]1O [4β, D-glucoside] |  |  |  | 10000 nM | 3500 nM |  | 3800 nM | 2900 nM | 8200 nM |  | 1900 nM | 4500 nM | 6000 nM | relatively inactive | 2400 nM | 3100 nM |  |  | 
6-deoxy-6-azido-D-mannoside [41β] |  |  |  | 3300 nM | 2700 nM |  | 6000 nM | 1700 nM | 2000 nM |  | 840 nM | 2500 nM | 2100 nM | not active | 1800 nM | > 25000 nM |  |  | 
CON(C1CCC2(C)C(CCC3C2CCC2(C)C(C4=CC(=O)OC4)CCC32O)C1)C1OC(COC2OC(CO)C(O)C(O)C2O)C(O)C(O)C1O (stereo not drawn) [35β, melibioside] |  |  |  | > 25000 nM | 29000 nM |  | > 25000 nM | > 25000 nM | 27000 nM |  | 16000 nM | > 25000 nM | 15000 nM |  | 26000 nM | > 25000 nM | > 25000 nM |  | 
CON([C@H]1CC[C@@]2(C)[C@H](CC[C@@H]3[C@@H]2CC[C@]2(C)[C@@H](C4=CC(=O)OC4)CC[C@]32O)C1)[C@H]1OC[C@H](O)[C@H](O)[C@H]1O [32β, L-arabinoside] |  |  |  | 2200 nM | 720 nM |  | 300 nM | 1700 nM | 1100 nM |  | 650 nM | 1000 nM | 3000 nM | relatively inactive | 1200 nM | 400 nM |  |  | 
CONC1CC[C@]2(C)C3CC[C@]4(C)[C@@H](C5=CC(=O)OC5)CC[C@]4(O)C3CC[C@@H]2C1 (stereo partly drawn) [3β, R—C(3)aglycon] | 710 nM | 1000 nM | 900 nM | 1800 nM | 700 nM |  | 1200 nM | 1200 nM | 1300 nM |  |  |  |  |  | 1400 nM |  |  | ~1100 nM | > 25000 nM
CON(C1CCC2(C)C(CCC3C2CCC2(C)C(C4=CC(=O)OC4)CCC32O)C1)C1OC(C)C(O)C(O)C1O [7α, L-fucoside] |  |  |  | > 25000 nM | > 25000 nM |  | > 25000 nM | > 25000 nM | > 25000 nM |  | > 25000 nM | > 25000 nM | > 25000 nM |  | > 25000 nM | > 25000 nM |  |  | 
CON(C1CCC2(C)C(CCC3C2CCC2(C)C(C4=CC(=O)OC4)CCC32O)C1)C1OC(CO)C(O)C(O)C1O [21α, L-galactoside] |  |  |  | > 25000 nM | > 25000 nM |  | > 25000 nM | > 25000 nM | > 25000 nM |  | > 25000 nM | > 25000 nM | > 25000 nM |  | > 25000 nM | > 25000 nM |  |  | 
CON([C@H]1CC[C@@]2(C)[C@H](CC[C@@H]3[C@@H]2CC[C@]2(C)[C@@H](C4=CC(=O)OC4)CC[C@]32O)C1)[C@@H]1C[C@@](C)(O)[C@@H](O)[C@H](C)O1 [30β, L-mycaroside] |  |  |  | 1800 nM | 190 nM |  | 600 nM | 600 nM | 1100 nM |  | 350 nM | 1100 nM | 1100 nM |  | 600 nM | > 25000 nM |  |  | 
CON([C@H]1CC[C@@]2(C)[C@H](CC[C@@H]3[C@@H]2CC[C@]2(C)[C@@H](C4=CC(=O)OC4)CC[C@]32O)C1)[C@@H]1O[C@H](CO)[C@H](O)[C@@H](O)[C@H]1O [25β, D-guloside] |  |  |  | 900 nM | 2600 nM |  | 2100 nM | 2000 nM | 5700 nM |  | 1100 nM | 2000 nM | 2200 nM |  | 1900 nM | 1800 nM |  |  | 
CON(C1CCC2(C)C(CCC3C2CCC2(C)C(C4=CC(=O)OC4)CCC32O)C1)C1OC(CO)C(O)C(O)C1O [20α, D-altroside] |  |  |  | > 25000 nM | > 25000 nM |  | > 25000 nM | > 25000 nM | > 25000 nM |  | > 25000 nM | > 25000 nM | > 25000 nM |  | > 25000 nM | > 25000 nM |  |  | 
